Results: PubChem BioAssay AID1845209 (Molecular Pharmacology Branch, DTP, NCI, 2023)

Test system: NCI-H211 tumor spheroids, viability percent test/control
Experiment: Anticancer human tumor NCI-H211 cell line growth inhibition;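 further: spheroids exposed to agents for seven days before readout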
Conditions: spheroids with HUVEC and MSC; for IC50: curve of first compound; for viability, T/C: stronger effect = lower value
How it was run: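 Single agents and combinations were tested on spheroids built from tumor cells plus HUVEC and hMSC, at half-log dilutions starting at or near clinical Cmax, else 10 microM; final DMSO 0.25% (v/v).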

[1] = second compound 1 µM, first compound 0.00949 µM
[2] = second compound 1 µM, first compound 0.03 µM
[3] = second compound 1 µM, first compound 0.0949 µM
[4] = second compound 1 µM, first compound 0.3 µM
[5] = second compound 1 µM, first compound 0.949 µM
[6] = second compound 1 µM, first compound 3 µM
[7] = second compound 3.16 µM, first compound 0.00949 µM
[8] = second compound 3.16 µM, first compound 0.03 µM
[9] = second compound 3.16 µM, first compound 0.0949 µM
[10] = second compound 3.16 µM, first compound 0.3 µM
[11] = second compound 3.16 µM, first compound 0.949 µM
[12] = second compound 3.16 µM, first compound 3 µM
[13] = second compound 10 µM, first compound 0.00949 µM
[14] = second compound 10 µM, first compound 0.03 µM
[15] = second compound 10 µM, first compound 0.0949 µM
[16] = second compound 10 µM, first compound 0.3 µM
[17] = second compound 10 µM, first compound 0.949 µM
[18] = second compound 10 µM, first compound 3 µM
[19] = second compound 31.6 µM, first compound 0.00949 µM
[20] = second compound 31.6 µM, first compound 0.03 µM
[21] = second compound 31.6 µM, first compound 0.0949 µM
[22] = second compound 31.6 µM, first compound 0.3 µM
[23] = second compound 31.6 µM, first compound 0.949 µM
[24] = second compound 31.6 µM, first compound 3 µM
[25] = second compound 100 µM, first compound 0.00949 µM
[26] = second compound 100 µM, first compound 0.03 µM
[27] = second compound 100 µM, first compound 0.0949 µM
[28] = second compound 100 µM, first compound 0.3 µM
[29] = second compound 100 µM, first compound 0.949 µM
[30] = second compound 100 µM, first compound 3 µM

Cc1sc2c(c1C)C(c1ccc(Cl)cc1)=NC(CC(=O)Nc1ccc(O)cc1)c1nnc(C)n1-2 (stereo not given) + Cn1nnc2c(C(N)=O)ncn2c1=O
IC50 (second compound 1 µM): < 9.49 nM
IC50 (second compound 3.16 µM): < 9.49 nM
IC50 (second compound 10 µM): < 9.49 nM
IC50 (second compound 31.6 µM): < 9.49 nM
IC50 (second compound 100 µM): < 9.49 nM
viability, T/C [1]: 25.5%
viability, T/C [2]: 2.24%
viability, T/C [3]: 0.88%
viability, T/C [4]: 0.67%
viability, T/C [5]: 0.78%
viability, T/C [6]: 0.72%
viability, T/C [7]: 36.7%
viability, T/C [8]: 3.37%
viability, T/C [9]: 0.97%
viability, T/C [10]: 0.76%
viability, T/C [11]: 0.66%
viability, T/C [12]: 0.82%
viability, T/C [13]: 31.8%
viability, T/C [14]: 1.97%
viability, T/C [15]: 1.15%
viability, T/C [16]: 0.79%
viability, T/C [17]: 0.76%
viability, T/C [18]: 0.74%
viability, T/C [19]: 22%
viability, T/C [20]: 1.97%
viability, T/C [21]: 1.02%
viability, T/C [22]: 0.79%
viability, T/C [23]: 0.71%
viability, T/C [24]: 0.82%
viability, T/C [25]: 6.77%
viability, T/C [26]: 1.61%
viability, T/C [27]: 1.08%
viability, T/C [28]: 1.09%
viability, T/C [29]: 0.86%
viability, T/C [30]: 1.03%

Cn1ncnc1[C@H]1c2n[nH]c(=O)c3cc(F)cc(c23)N[C@@H]1c1ccc(F)cc1 + Cn1nnc2c(C(N)=O)ncn2c1=O
IC50 (second compound 1 µM): < 9.49 nM
IC50 (second compound 3.16 µM): < 9.49 nM
IC50 (second compound 10 µM): < 9.49 nM
IC50 (second compound 31.6 µM): < 9.49 nM
IC50 (second compound 100 µM): < 9.49 nM
viability, T/C [1]: 3.46%
viability, T/C [2]: 3.69%
viability, T/C [3]: 2.71%
viability, T/C [4]: 3.04%
viability, T/C [5]: 3.81%
viability, T/C [6]: 3.16%
viability, T/C [7]: 3.37%
viability, T/C [8]: 3.4%
viability, T/C [9]: 3.93%
viability, T/C [10]: 3.87%
viability, T/C [11]: 3.65%
viability, T/C [12]: 3.16%
viability, T/C [13]: 3.37%
viability, T/C [14]: 3.82%
viability, T/C [15]: 3.49%
viability, T/C [16]: 3.08%
viability, T/C [17]: 3.95%
viability, T/C [18]: 3.46%
viability, T/C [19]: 3.2%
viability, T/C [20]: 3.45%
viability, T/C [21]: 3.47%
viability, T/C [22]: 3.72%
viability, T/C [23]: 3.28%
viability, T/C [24]: 3.57%
viability, T/C [25]: 2.87%
viability, T/C [26]: 3.97%
viability, T/C [27]: 3.4%
viability, T/C [28]: 3.21%
viability, T/C [29]: 3.43%
viability, T/C [30]: 3.17%

[2H]c1nc(C)nc([2H])c1-c1cc(NC[C@@H](C)c2cccc3c(C(=O)NC)ccnc23)ncn1 + Cn1nnc2c(C(N)=O)ncn2c1=O
IC50 (second compound 1 µM): > 10000 nM
IC50 (second compound 3.16 µM): > 10000 nM
IC50 (second compound 10 µM): > 10000 nM
IC50 (second compound 31.6 µM): 3300 nM
IC50 (second compound 100 µM): < 31.6 nM
viability, T/C (second compound 1 µM, first compound 0.0316 µM): 97.9%
viability, T/C (second compound 1 µM, first compound 0.1 µM): 96.7%
viability, T/C (second compound 1 µM, first compound 0.316 µM): 93.5%
viability, T/C (second compound 1 µM, first compound 1 µM): 95%
viability, T/C (second compound 1 µM, first compound 3.16 µM): 101%
viability, T/C (second compound 1 µM, first compound 10 µM): 88.9%
viability, T/C (second compound 3.16 µM, first compound 0.0316 µM): 108%
viability, T/C (second compound 3.16 µM, first compound 0.1 µM): 113%
viability, T/C (second compound 3.16 µM, first compound 0.316 µM): 98.7%
viability, T/C (second compound 3.16 µM, first compound 1 µM): 99.7%
viability, T/C (second compound 3.16 µM, first compound 3.16 µM): 95.3%
viability, T/C (second compound 3.16 µM, first compound 10 µM): 103%
viability, T/C (second compound 10 µM, first compound 0.0316 µM): 106%
viability, T/C (second compound 10 µM, first compound 0.1 µM): 105%
viability, T/C (second compound 10 µM, first compound 0.316 µM): 85.5%
viability, T/C (second compound 10 µM, first compound 1 µM): 103%
viability, T/C (second compound 10 µM, first compound 3.16 µM): 65%
viability, T/C (second compound 10 µM, first compound 10 µM): 82.6%
viability, T/C (second compound 31.6 µM, first compound 0.0316 µM): 61.5%
viability, T/C (second compound 31.6 µM, first compound 0.1 µM): 53.1%
viability, T/C (second compound 31.6 µM, first compound 0.316 µM): 49.8%
viability, T/C (second compound 31.6 µM, first compound 1 µM): 47.5%
viability, T/C (second compound 31.6 µM, first compound 3.16 µM): 51.6%
viability, T/C (second compound 31.6 µM, first compound 10 µM): 18.4%
viability, T/C (second compound 100 µM, first compound 0.0316 µM): 33%
viability, T/C (second compound 100 µM, first compound 0.1 µM): 21.6%
viability, T/C (second compound 100 µM, first compound 0.316 µM): 15.9%
viability, T/C (second compound 100 µM, first compound 1 µM): 13.6%
viability, T/C (second compound 100 µM, first compound 3.16 µM): 11.7%
viability, T/C (second compound 100 µM, first compound 10 µM): 8.11%
